We go through 13 molecules from ChEMBL document CHEMBL1127099, “Anticonvulsant activity of glycine-site NMDA antagonists. 2. trans 2-carboxy-4-substituted tetrahydroquinolines” (Bioorg Med Chem Lett, 1993).

A value given as a limit tells only on which side of the number the result lay.

One may read the Kb as the equilibrium dissociation constant of an antagonist, usually derived from a functional assay. Higher therefore signals lower antagonist affinity. The IC50 is the concentration that gives 50% inhibition. A lower IC50 goes with greater potency in that assay. The half-life is the time needed for the level to fall by half in the phase considered. Read a low half-life as rapid decline. What is called logP is the decadic logarithm of the partition coefficient of the neutral form, usually between octanol and water. A lower logP goes with lower lipophilicity.

The species named for one data set is Rattus norvegicus. The data set can be described thus: Tested for the antagonistic potency for blockade of NMDA-induced depolarizations in rat cortical slices. The format is functional.
Data set [1] is described as follows: Ratio of ED50 values administered intracerebroventricular to that of antagonistic potency (Kb). It counts as functional.
The subject of data set [2] is Mus musculus. Kind of data set: Tested for the anticonvulsant activity in DBA/2 mice after 30 mins of intraperitoneal administration. It counts as functional. Conditions: ip, 0.5 h.
In data set [3] the target is Glutamate NMDA receptor. The data set can be described thus: Tested for the binding affinity at glycine recognition site of the NMDA receptor in rat cortical membranes using radiolabeled [3H]- L-689 560. The format is cell membranes, Membrane.
Data set [4] is described as follows: Plasma half-life was tested. The format is ADME, cell-free.
Data set [5] concerns the target Glutamate NMDA receptor. Kind of data set: Tested for the binding affinity at glycine recognition site of the NMDA receptor in rat cortical membranes using radiolabeled [3H]-L-689,560 560. It counts as cell membranes, Membrane.
A short description of data set [6]: Partition coefficient (logP). Conditions: octanol/water. It counts as physicochemical.
Data set [7] deals with Mus musculus. The data set can be described thus: Tested for the anticonvulsant activity in DBA/2 mice after 15 mins of intracerebroventricular administration at pH 8.0. The format is functional.

`NC(Cc1ccc(CC(=O)N[C@H]2C[C@H](C(=O)O)Nc3cc(Cl)cc(Cl)c32)cc1)C(=O)O` (stereo partly drawn): in the data set filed under Rattus norvegicus, the Kb stood at 840 nM. In addition, the Ratio in data set [1] was found to be 0.6. The molecule also yielded an ED50 with Mus musculus [2] of 29 mg/kg. The molecule further came in with an IC50 on Glutamate NMDA receptor [3] of 32 nM.
For the molecule `NCc1ccc(CC(=O)N[C@H]2C[C@H](C(=O)O)Nc3cc(Cl)cc(Cl)c32)cc1`, the Kb in the data set filed under Rattus norvegicus amounted to 240 nM. The molecule also showed a half-life in data set [4] of 1.83 h. For the same molecule, the Ratio in data set [1] is 15. In addition, the ED50 in the data set on Mus musculus [2] was determined as 39 mg/kg. Besides, the IC50 on Glutamate NMDA receptor [3] is 19 nM.
In the case of `O=C(Nc1ccccc1)N[C@H]1C[C@H](C(=O)O)Nc2cc(Cl)cc(Cl)c21`, in the data set listed under Rattus norvegicus, the Kb was found to be 130 nM. In the data set with Mus musculus [2], this molecule registered an ED50 of over 100 mg/kg.
Turning to `O=C(O)C[C@H]1C[C@H](C(=O)O)Nc2cc(Cl)cc(Cl)c21`, the IC50 on Glutamate NMDA receptor [3] stood at 74 nM.
`O=C(Cc1ccccc1)N[C@H]1C[C@H](C(=O)O)Nc2cc(Cl)cc(Cl)c21` came in with a Kb in the data set listed under Rattus norvegicus of 530 nM. In addition, the Ratio in data set [1] is recorded as 9. Besides, the IC50 at Glutamate NMDA receptor [5] is 14 nM. The molecule also gave a logP in data set [6] of 0.55. In the data set with Mus musculus [2], this molecule gave an ED50 of 46 mg/kg.
`O=[N+]([O-])c1cc([N+](=O)[O-])c2nc(O)c(O)nc2c1` registered a Kb in the data set filed under Rattus norvegicus of 1230 nM. Also, the Ratio in data set [1] is listed as over 16. Further, in the data set on Mus musculus [2], the ED50 was over 10 mg/kg.
In the case of `CN(C(=O)Nc1ccccc1)[C@H]1C[C@H](C(=O)O)Nc2cc(Cl)cc(Cl)c21`, the IC50 on Glutamate NMDA receptor [3] came to 9 nM.
`O=C(O)c1cc(O)c2c(Cl)cc(Cl)cc2n1` displayed an ED50 in the data set with Mus musculus [2] of over 250 mg/kg.
As for `COC(=O)[C@H]1C[C@H](NC(=O)Cc2ccc(CN)cc2)c2c(Cl)cc(Cl)cc2N1.Cl`, the ED50 with Mus musculus [2] was found to be 31.5 mg/kg.
For the molecule `O=C(C[C@H]1C[C@H](C(=O)O)Nc2cc(Cl)cc(Cl)c21)Nc1ccccc1`, the IC50 at Glutamate NMDA receptor [5] came out at 19 nM. This counts as double-digit nanomolar.
Consider `C/C(=C\C(N)C(=O)O)CP(=O)(O)O` (stereo not drawn) [CGP-37849], for which the Kb in the data set listed under Rattus norvegicus amounted to 200 nM. Besides, the Ratio in data set [1] was 0.1. In addition, the ED50 turned out to be 0.02 nM in the data set on Mus musculus [7] and 0.8 mg/kg in the data set on Mus musculus [2].
The molecule `C[C@]12N[C@H](Cc3ccccc31)c1ccccc12` [DIZOCILPINE] yielded a Kb in the data set listed under Rattus norvegicus of 80 nM. Moreover, the Ratio in data set [1] is listed as 23. Further, the ED50 in the data set with Mus musculus [2] was 0.2 mg/kg.
`O=C(O)c1cc(=O)c2ccccc2[nH]1` [TRANSTORINE] registered a Kb in the data set filed under Rattus norvegicus of 154000 nM. This molecule registered an ED50 in the data set with Mus musculus [2] of over 250 mg/kg.
